Measurements as given in PubChem BioAssay (NCI).
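Where inhibition never reached the appropriate level, the endpoint shown equals the highest concentration tested. Otherwise, values were interpolated linearly from a five-concentration, 48-hour dose response in 96-well plates. Definition used: TGI = concentration required for complete inhibition of growth.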

Columns and labels:
Test in all cases: growth of human tumour cells (NCI), 48 h
[1] = tested on: CCRF-CEM leukemia
[2] = tested on: NCI-H226 lung
[3] = tested on: OVCAR-3 ovarian
[4] = tested on: SF-539 CNS
[5] = tested on: MDA-MB-435
[6] = tested on: SW-620 colon
[7] = tested on: HOP-62 NSCLC
[8] = tested on: UACC-257 melanoma
[9] = tested on: PC-3 prostate
[10] = tested on: MALME-3M melanoma
[11] = tested on: LOX IMVI melanoma
[12] = tested on: HL-60(TB) leukemia
[13] = tested on: MOLT-4 leukemia
[14] = tested on: ACHN renal
[15] = tested on: IGROV1 ovarian
[16] = tested on: SF-295 CNS
[17] = tested on: HT29 colon
[18] = tested on: NCI-H522 lung
[19] = tested on: SK-OV-3 ovarian
[20] = tested on: OVCAR-8 ovarian
[21] = tested on: SN12C renal
[22] = tested on: K-562 leukemia
[23] = tested on: SF-268 CNS
[24] = tested on: OVCAR-4 ovarian
[25] = tested on: U251 CNS
[26] = tested on: RPMI-8226 leukemia
[27] = tested on: NCI-H23 lung
[28] = tested on: NCI-H460 lung
[29] = tested on: A549 NSCLC
[30] = tested on: HS 578T breast
[31] = tested on: CAKI-1 renal
[32] = tested on: MDA-MB-231 breast
[33] = tested on: M14 melanoma
[34] = tested on: SK-MEL-2 melanoma
[35] = tested on: NCI/ADR-RES ovarian
[36] = tested on: HCT-116 colon
[37] = tested on: HOP-92 NSCLC
[38] = tested on: KM12 colon
[39] = tested on: SR leukemia
[40] = tested on: RXF 393 renal
[41] = tested on: MDA-N
[42] = tested on: A498 renal
[43] = tested on: SNB-19 CNS
[44] = tested on: DU-145 prostate
[45] = tested on: COLO 205 colon
[46] = tested on: TK-10 renal
[47] = tested on: EKVX NSCLC
[48] = tested on: SK-MEL-5 melanoma
[49] = tested on: MCF7 breast
[50] = tested on: 786-0 renal
[51] = tested on: SK-MEL-28 melanoma
[52] = tested on: HCT-15 colon
[53] = tested on: BT-549 breast
[54] = tested on: OVCAR-5 ovarian

Measured: TGI

CN(C)CCCNC(=S)S
> 100 µM: all assays above
